{"source": "paper PMC11784183", "about": "“Identification of an antibiotic from an HTS targeting EF-Tu:tRNA interaction: a prospective topical treatment for MRSA skin infections” (Applied and Environmental Microbiology, 2024)", "system": "S. aureus USA300 subcutaneous infection", "experiment": "Mouse skin infection model, topical ointment", "assay_type": "in vivo, mice", "conditions": "topical ointment daily"}
{"smiles": "C/C(=C\\C(=O)OCCCCCCCCC(=O)O)C[C@@H]1OC[C@H](C[C@@H]2O[C@H]2[C@@H](C)[C@H](C)O)[C@@H](O)[C@H]1O", "note": "[mupirocin, reference compound]", "values": [{"measurement": "dermonecrosis as a result of S. aureus infection (area over time)", "setting": "5 days, vs untreated control (ointment without drug)", "value": "not having a significant effect on dermonecrosis"}, {"measurement": "bacterial burden in punch biopsies", "setting": "day 5, vs untreated control", "value": "significantly reduced the bacterial burden"}]}
